Experimental data reported in US10562897B2, “Substituted 3,4-dihydro-2H-pyrido[1,2-a]pyrazine-1,6-diones as gamma secretase modulators” (Janssen Pharmaceutica NV, priority 2014, dated 2020).
Where two headings read alike, the source gives them in different places.

What was measured:
Aβ40 = experiment: In vivo efficacy: brain level of soluble Aβ40, non-transgenic rodents, single oral dose 30 mg/kg, 4 h, MSD electrochemiluminescence, untreated control = 100; design: species or system mouse; details: for response vs control in vivo at 30 mg/kg / response vs control in vivo at 10 mg/kg: Mus musculus, read-out: Aβ40 (% vs Ctrl) _Mean; for response vs control in vivo at 10 mg/kg: 10 mpk po
Text: (§1) To determine whether acute administration of an Aβ42 lowering agent would reduce Aβ42 levels in vivo, non-transgenic rodents, e.g. mice or rats were used. Animals treated with the Aβ42 lowering agent were examined and compared to those untreated or treated with vehicle and brain levels of soluble Aβ42, Aβ40, Aβ38, and Aβ37 were quantitated by Meso Scale Discovery's (MSD) electrochemiluminescence detection technology. Treatment periods varied from hours (h) to days and were adjusted based on the results of the Aβ42 lowering once a time course of onset of effect could be established.
(§2) A typical protocol for measuring Aβ42 lowering in vivo is shown but it is only one of many variations that could be used to optimize the levels of detectable Aβ. For example, Aβ42 lowering compounds were formulated in 20% of Captisol® (a sulfobutyl ether of β-cyclodextrin) in water or 20% hydroxypropyl β cyclodextrin. The Aβ42 lowering agents were administered as a single oral dose or by any acceptable route of administration to overnight fasted animals. After 4 h, the animals were sacrificed and Aβ42 levels were analysed.
(§3) Blood was collected by decapitation and exsanguinations in EDTA-treated collection tubes. Blood was centrifuged at 1900 g for 10 minutes (min) at 4° C. and the plasma recovered and flash frozen for later analysis. The brain was removed from the cranium and hindbrain. The cerebellum was removed and the left and right hemisphere were separated. The left hemisphere was stored at −18° C. for quantitative analysis of test compound levels. The right hemisphere was rinsed with phosphate-buffered saline (PBS) buffer and immediately frozen on dry ice and stored at −80° C. until homogenization for biochemical assays.
(§4) Mouse brains from non-transgenic animals were resuspended in 8 volumes of 0.4% DEA (diethylamine)/50 mM NaCl containing protease inhibitors (Roche-11873580001 or 04693159001) per gram of tissue, e.g. for 0.158 g brain, add 1.264 ml of 0.4% DEA. All samples were homogenized in the FastPrep-24 system (MP Biomedicals) using lysing matrix D (MPBio #6913-100) at 6 m/s for 20 seconds. Homogenates were centrifuged at 20800×g for 5 min and supernatants collected. Supernatants were centrifuged at 221.300×g for 50 min. The resulting high speed supernatants were then transferred to fresh eppendorf tubes. Nine parts of supernatant were neutralized with 1 part 0.5 M Tris-HCl pH 6.8 and used to quantify Aβ.
(§5) To quantify the amount of Aβ42, Aβ40, Aβ38, and Aβ37 in the soluble fraction of the brain homogenates, simultaneous specific detection of Aβ42, Aβ40, Aβ38, and Aβ37 was performed using MSD's electro-chemiluminescence multiplex detection technology. In this assay purified monoclonal antibodies specific for Abeta37 (JRD/Aβ37/3), Abeta38 (J&JPRD/Aβ38/5), Abeta40 (JRF/cAβ40/28), and Abeta42 (JRF/cAβ42/26) were coated on MSD 4-plex plates. Briefly, the standards (a dilution of synthetic Aβ42, Aβ40, Aβ38, and Aβ37) were prepared in 1.5 ml Eppendorf tube in Ultraculture, with final concentrations ranging from 10000 to 0.3 pg/m. The samples and standards were co-incubated with Sulfo-tag labelled JRF/rAß/2 antibody to the N-terminus of Aβ as detector antibody. 50 μl of conjugate/sample or conjugate/standards mixtures were then added to the antibody-coated plate. The plate was allowed to incubate overnight at 4° C. in order to allow formation of the antibody-amyloid complex. Following this incubation and subsequent wash steps the assay was finished by adding read buffer according to the manufacturer's instructions (Meso Scale Discovery, Gaitherburg, Md.).
The SULFO-TAG emits light upon electrochemical stimulation initiated at the electrode. MSD Sector instrument SI6000 was used for signal read-out. […]

Aβ42 = experiment: In vivo efficacy: brain level of soluble Aβ42, non-transgenic rodents, single oral dose 30 mg/kg, 4 h, MSD electrochemiluminescence, untreated control = 100; design: species or system mouse; details: for response vs control in vivo at 30 mg/kg / response vs control in vivo at 10 mg/kg: Mus musculus, read-out: Aβ42 (% vs Ctrl) _Mean; for response vs control in vivo at 10 mg/kg: 10 mpk po; for Aβ42 (% vs Ctrl) _Mean: 30 mg/kg
Text: as §1, §2, §3, §4, §5
(§6) The SULFO-TAG emits light upon electrochemical stimulation initiated at the electrode. MSD Sector instrument SI6000 was used for signal read-out.
In this model a Aß42 lowering compared to untreated animals would be advantageous, in particular a Aß42 lowering with at least 10%, more in particular a Aß42 lowering with at least 20%. […]

Aβ38 = experiment: In vivo efficacy: brain level of soluble Aβ38, non-transgenic rodents, single oral dose 30 mg/kg, 4 h, MSD electrochemiluminescence, untreated control = 100; design: species or system mouse; details: for response vs control in vivo at 30 mg/kg / response vs control in vivo at 10 mg/kg: Mus musculus, read-out: Aβ38 (% vs Ctrl) _Mean; for response vs control in vivo at 10 mg/kg: 10 mpk po; for Aβ38 (% vs Ctrl) _Mean: 30 mg/kg
Text: To determine whether acute administration of an Aβ38 increasing agents would increase Aβ38 levels in vivo, non-transgenic rodents, e.g. mice or rats were used. Animals treated with the Aβ38 increasing agents were examined and compared to those untreated or treated with vehicle and brain levels of soluble Aβ42, Aβ40, Aβ38, and Aβ37 were quantitated by MSD electrochemiluminescence detection technology.
Treatment periods varied from hours (h) to days and were adjusted based on the results of the Aβ38 increase once a time course of onset of effect could be established.
as §2, with “measuring Aβ38 increase” for “measuring Aβ42 lowering”, “example, Aβ38 increasing agents” for “example, Aβ42 lowering compounds”, “The Aβ38 increasing” for “The Aβ42 lowering”, “and Aβ38” for “and Aβ42”
as §3, §4
as §5, with “[…].” for “pg/m.”
as §6
In this model a Aß38 increase compared to untreated animals would be advantageous, in particular a Aß38 increase with at least 10%, more in particular a Aß38 increase with at least 20%. […]

SMILES	melting point [°C]	response vs control in vivo at 30 mg/kg (Aβ40; po, dose 30 mg/kg oral dosing) [%]	response vs control in vivo at 30 mg/kg (Aβ42; po, dose 30 mg/kg oral dosing) [%]	response vs control in vivo at 30 mg/kg (Aβ38; po, dose 30 mg/kg oral dosing) [%]	also measured
Cc1cn(-c2ccc3n(c2=O)CC(C)N(C(C)c2cc(OC4CC4)cc(C(F)(F)F)c2)C3=O)cn1 (stereo not drawn) [Compound 48]	–	91	–	–	Aβ42 (% vs Ctrl) _Mean (Aβ42; dose 30 mg/kg oral dosing): 60 % vs Ctrl; Aβ38 (% vs Ctrl) _Mean (Aβ38; dose 30 mg/kg oral dosing): 161 % vs Ctrl
Cc1cn(-c2ccc3n(c2=O)CC(C)N(Cc2ccc(C)c(N4CC5CC5C4)c2)C3=O)cn1 (stereo not drawn) [Compound 30]	–	126	118	121	–
Cc1cn(-c2ccc3n(c2=O)C[C@@H](C)N(CC2(c4cc(OC5CC5)cc(C(F)(F)F)c4)CC2)C3=O)cn1 [Compound 53]	–	121	120	124	–
Cc1cn(-c2ccc3n(c2=O)CC(C)N(C(C)c2coc4cc(F)c(Cl)cc24)C3=O)cn1 (single isomer, unassigned) [Compound 65]	–	52	58	165	–
Cc1cn(-c2ccc3n(c2=O)C[C@@H](C)N(Cc2coc4ccc(Cl)cc24)C3=O)cn1 [Compound 55]	–	113	93	142	–
Cc1cn(-c2ccc3n(c2=O)CC(C)N(Cc2cc4c(s2)CCC(C(F)(F)F)C4)C3=O)cn1 (stereo not drawn) [Compound 34]	–	128	104	102	–
Cc1cn(-c2ccc3n(c2=O)CC(C)N(C(C)c2cc(OC4CC4)cc(C(F)(F)F)c2)C3=O)cn1 (stereo not drawn) [Compound 49]	–	–	–	–	Aβ40 (% vs Ctrl) _Mean (Aβ40; dose 30 mg/kg oral dosing, 30 mg/kg): 101 % vs Ctrl; Aβ42 (% vs Ctrl) _Mean (Aβ42; dose 30 mg/kg oral dosing): 85 % vs Ctrl; Aβ38 (% vs Ctrl) _Mean (Aβ38; dose 30 mg/kg oral dosing): 123 % vs Ctrl

Now from value to molecule, other results behind:

melting point [°C]	SMILES	response vs control in vivo at 30 mg/kg (Aβ40; po, dose 30 mg/kg oral dosing) [%]	response vs control in vivo at 30 mg/kg (Aβ42; po, dose 30 mg/kg oral dosing) [%]	response vs control in vivo at 30 mg/kg (Aβ38; po, dose 30 mg/kg oral dosing) [%]	also measured
222	Cc1cn(-c2ccc3n(c2=O)C[C@@H](C)N(Cc2coc4cc(F)c(C(F)(F)F)cc24)C3=O)cn1 [Compound 84]	–	–	–	response vs control in vivo at 30 mg/kg (Aβ40; sc, 30 mpk sc (footnote *)): 21%; response vs control in vivo at 30 mg/kg (Aβ42; sc, 30 mpk sc): 25%; response vs control in vivo at 30 mg/kg (Aβ38; sc, 30 mpk sc): 237%
231	Cc1cn(-c2ccc3n(c2=O)CCN(C(C)c2coc4cc(F)c(Cl)cc24)C3=O)cn1 (single isomer, unassigned) [Compound 61]	90	86	192	–
230	Cc1cn(-c2ccc3n(c2=O)CC(C)N(C(C)c2coc4cc(F)c(C(F)(F)F)cc24)C3=O)cn1 (single isomer, unassigned) [Compound 89]	–	–	–	response vs control in vivo at 10 mg/kg (Aβ40; po): 67%; response vs control in vivo at 10 mg/kg (Aβ42; po): 58%; response vs control in vivo at 10 mg/kg (Aβ38; po): 132%
211	Cc1cn(-c2ccc3n(c2=O)CCN(Cc2coc4ccc(C(F)(F)F)cc24)C3=O)cn1 [Compound 64]	–	–	–	response vs control in vivo at 30 mg/kg (Aβ40; sc, 30 mpk sc (footnote *)): 132%; response vs control in vivo at 30 mg/kg (Aβ42; sc, 30 mpk sc): 108%; response vs control in vivo at 30 mg/kg (Aβ38; sc, 30 mpk sc): 155%
187	Cc1cn(-c2ccc3n(c2=O)C[C@@H](C)N(Cc2coc4ccc(C(F)(F)F)cc24)C3=O)cn1 [Compound 73]	–	–	–	response vs control in vivo at 30 mg/kg (Aβ40; sc, 30 mpk sc (footnote *)): 114%; response vs control in vivo at 30 mg/kg (Aβ42; sc, 30 mpk sc): 97%; response vs control in vivo at 30 mg/kg (Aβ38; sc, 30 mpk sc): 110%
159	Cc1cn(-c2ccc3n(c2=O)C[C@@H](C)N(Cc2cc4cc(Br)ccc4o2)C3=O)cn1 [Compound 13]	101	77	117	–
215	Cc1cn(-c2ccc3n(c2=O)C[C@@H](C)N(Cc2coc4cc(C(F)(F)F)ccc24)C3=O)cn1 [Compound 72]	88	64	130	–
226	Cc1cn(-c2ccc3n(c2=O)C[C@@H](C)N(Cc2coc4cc(C(F)(F)F)c(F)cc24)C3=O)cn1 [Compound 85]	–	–	–	response vs control in vivo at 30 mg/kg (Aβ40; sc, 30 mpk sc (footnote *)): 69%; response vs control in vivo at 30 mg/kg (Aβ42; sc, 30 mpk sc): 51%; response vs control in vivo at 30 mg/kg (Aβ38; sc, 30 mpk sc): 194%
202	Cc1cn(-c2ccc3n(c2=O)C[C@@H](C)N(Cc2coc4c(Cl)cc(Cl)cc24)C3=O)cn1 [Compound 74]	–	–	–	response vs control in vivo at 10 mg/kg (Aβ40; po): 100%; response vs control in vivo at 10 mg/kg (Aβ42; po): 83%; response vs control in vivo at 10 mg/kg (Aβ38; po): 144%
